From ChEMBL document CHEMBL1201862, “PubChem BioAssay data set” (2004)
Calls of active or inactive are those of the source.

Key:
[1] = Luminescence Cell-Based Dose Response HTS to Identify Activators of Luciferase Translation or Activity in H4 […] Cells. [Related pubchem assays: 1829 (Project Summary), 1814 (Primary HTS)]; assay type: functional
[2] = Luminescence Cell-Based Dose Confirmation HTS to Identify Activators of 5'UTR Stem-Loop Driven Alpha-Synuclein mRNA Translation in H4 Neuroglioblastoma Cells. [Related pubchem assays: 1829 (Project Summary), 1814 (Primary HTS)]; assay type: functional
[3] = Counterscreen for inhibitors of Trypanosoma brucei methionyl tRNA synthetase (MetRS): Luminescence-based cell-based high throughput dose response assay to identify compounds that are cytotoxic to Jurkat human T lymphocyte cells.; assay type: functional
H4 = experiment: Luminescence Cell-Based Dose Response HTS to Identify Activators of 5'UTR Stem-Loop Driven Prion Protein mRNA Translation in H4 Neuroglioblastoma Cells. [Related pubchem assays: 1829 (Project Summary), 1814 (Primary HTS)]; assay type: functional; conditions: Homo sapiens
[4] = IGROV1 cell killing – plate reader, dry powder samples, PAX8 inhibitor project, dose response (AID 743043); assay type: functional, cell-based; conditions: IGROV-1
Paired box protein Pax-8 = Paired box protein Pax-8 (Homo sapiens, UniProt Q06710); experiment: PAX8 transcriptional activity inhibition in RMG-I – RMG-I cells, luciferase, cherry-pick, dose response (AID 687027); assay type: functional, cell-based;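 note: luciferase reporter driven by Pax8 target thyroperoxidase promoter measured by SteadyGlo luminescence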
[5] = OVCAR8 cell viability loss – plate reader, dry powder samples, PAX8 project, dose response (AID 743197); assay type: functional, cell-based; conditions: OVCAR-8
[6] = target: T1, Methionyl-tRNA synthetase, putative (Trypanosoma brucei brucei, UniProt Q38C91); assay type: functional, Trypanosoma brucei brucei strain 927/4 GUTat10.1;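 note: Read-out by fluorescence polarization, run as a confirmatory high-throughput counterscreen; potency of MetRS inhibitors measured by reduced AMP formation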
T1 sequence (Q38C91 whole entry): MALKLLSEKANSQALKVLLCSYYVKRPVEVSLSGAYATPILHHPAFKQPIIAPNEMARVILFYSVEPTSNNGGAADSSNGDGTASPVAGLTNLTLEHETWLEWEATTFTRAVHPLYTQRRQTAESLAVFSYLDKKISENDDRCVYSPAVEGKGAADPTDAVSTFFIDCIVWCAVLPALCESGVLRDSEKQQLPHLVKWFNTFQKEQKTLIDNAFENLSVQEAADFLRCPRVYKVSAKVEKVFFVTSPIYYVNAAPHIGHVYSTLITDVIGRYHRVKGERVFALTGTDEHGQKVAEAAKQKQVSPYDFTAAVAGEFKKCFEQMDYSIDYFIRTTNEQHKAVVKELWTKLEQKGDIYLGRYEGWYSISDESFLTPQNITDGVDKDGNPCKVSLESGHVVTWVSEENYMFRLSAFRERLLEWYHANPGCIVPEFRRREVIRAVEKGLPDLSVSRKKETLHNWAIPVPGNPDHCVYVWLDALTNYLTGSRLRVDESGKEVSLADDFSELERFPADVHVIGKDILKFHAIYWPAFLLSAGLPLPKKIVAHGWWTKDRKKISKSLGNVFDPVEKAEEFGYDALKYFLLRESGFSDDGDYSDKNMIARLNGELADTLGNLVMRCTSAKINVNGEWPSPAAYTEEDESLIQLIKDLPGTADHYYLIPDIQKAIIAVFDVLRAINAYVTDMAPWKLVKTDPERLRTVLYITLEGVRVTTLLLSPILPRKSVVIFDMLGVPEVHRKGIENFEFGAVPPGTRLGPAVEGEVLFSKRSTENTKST

Cytochrome P450 2C9 = Cytochrome P450 2C9 (Homo sapiens, UniProt P11712)
Cytochrome P450 3A4 = Cytochrome P450 3A4 (Homo sapiens, UniProt P08684);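 note: CYP3A4 tested as one member of a cytochrome P450 panel screen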
fMet-Leu-Phe receptor = fMet-Leu-Phe receptor (Homo sapiens, UniProt P21462); experiment: formyl peptide receptor binders – dose response (AID 519); assay type: functional
[7] = target: Disintegrin and metalloproteinase domain-containing protein 17 (Homo sapiens, UniProt P78536); experiment: inhibition of ADAM17 substrate cleavage – biochemical, quenched FRET substrate, counter-screen for ADAM10 exosite inhibitor project, dose response (AID 743253)
[8] = potency of ADAM10 substrate cleavage blockers – biochemical, QFRET, dose response (AID 743254);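 note: ADAM10 enzyme with the DM2 quenched FRET peptide as substrate; EDANS fluorescence gain as the protease cuts the substrate; inhibitor potency against ADAM10 proteolytic activity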
[9] = target: T2, Corticotropin-releasing factor receptor 2/Corticotropin-releasing factor-binding protein (Homo sapiens, UniProt P24387+Q13324); experiment: activators of CRF receptor 2 with binding protein – uHTS hits, confirmation (AID 602473); assay type: functional; conditions: read-out: EC50_Mean
T2 sequence (Q13324 whole entry): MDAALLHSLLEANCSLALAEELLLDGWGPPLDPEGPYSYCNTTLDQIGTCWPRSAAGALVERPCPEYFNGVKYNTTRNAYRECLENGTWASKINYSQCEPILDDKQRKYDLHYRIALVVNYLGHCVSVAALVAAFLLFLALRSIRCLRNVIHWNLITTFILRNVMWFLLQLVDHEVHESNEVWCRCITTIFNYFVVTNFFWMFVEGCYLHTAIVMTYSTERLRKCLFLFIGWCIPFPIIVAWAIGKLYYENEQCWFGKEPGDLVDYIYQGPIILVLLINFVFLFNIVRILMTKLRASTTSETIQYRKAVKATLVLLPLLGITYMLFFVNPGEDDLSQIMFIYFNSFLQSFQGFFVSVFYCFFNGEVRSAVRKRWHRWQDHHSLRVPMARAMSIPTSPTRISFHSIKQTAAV
T2 sequence (P24387 whole entry): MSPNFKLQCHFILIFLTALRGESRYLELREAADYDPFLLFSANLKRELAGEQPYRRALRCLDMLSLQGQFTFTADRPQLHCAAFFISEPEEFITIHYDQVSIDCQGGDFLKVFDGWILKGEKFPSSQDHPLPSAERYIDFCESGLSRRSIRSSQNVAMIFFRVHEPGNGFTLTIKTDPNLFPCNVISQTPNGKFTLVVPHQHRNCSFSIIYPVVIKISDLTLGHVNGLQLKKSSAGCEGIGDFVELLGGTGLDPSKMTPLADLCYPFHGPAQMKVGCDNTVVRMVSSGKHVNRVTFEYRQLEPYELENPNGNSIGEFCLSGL

[10] = target: T3, Scavenger receptor class B member 1 (Mus musculus, UniProt Q61009); experiment: blockers of DiI-HDL lipid transfer via SR-BI – cell-based, ldlA[mSR-BI] CHO, DiI fluorescence, dry powder, set 10, dose response (AID 624029); assay type: functional
T3 sequence (Q61009 whole entry): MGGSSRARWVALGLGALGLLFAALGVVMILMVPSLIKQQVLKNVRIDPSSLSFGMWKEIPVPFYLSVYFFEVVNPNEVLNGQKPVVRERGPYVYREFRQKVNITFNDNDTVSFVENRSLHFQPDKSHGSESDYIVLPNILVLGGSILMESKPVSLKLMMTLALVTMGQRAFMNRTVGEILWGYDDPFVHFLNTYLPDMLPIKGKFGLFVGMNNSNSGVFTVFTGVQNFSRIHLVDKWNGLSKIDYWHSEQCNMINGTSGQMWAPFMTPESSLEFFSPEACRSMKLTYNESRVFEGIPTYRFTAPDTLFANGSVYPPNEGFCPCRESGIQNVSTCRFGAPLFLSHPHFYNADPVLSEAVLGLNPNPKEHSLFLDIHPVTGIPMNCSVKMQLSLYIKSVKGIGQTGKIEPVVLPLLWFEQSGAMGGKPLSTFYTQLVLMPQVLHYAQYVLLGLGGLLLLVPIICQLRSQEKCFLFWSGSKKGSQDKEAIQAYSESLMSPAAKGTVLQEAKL

[11] = target: T3, Scavenger receptor class B member 1; experiment: mouse SR-BI DiI-HDL transfer blockers – ldlA[mSR-BI] CHO cells, fluorescence plate reader, dry powder, set 9, dose response (AID 623880); assay type: functional, cell-based

Chain of fMet-Leu-Phe receptor (P21462 whole entry, the tested form may be a part): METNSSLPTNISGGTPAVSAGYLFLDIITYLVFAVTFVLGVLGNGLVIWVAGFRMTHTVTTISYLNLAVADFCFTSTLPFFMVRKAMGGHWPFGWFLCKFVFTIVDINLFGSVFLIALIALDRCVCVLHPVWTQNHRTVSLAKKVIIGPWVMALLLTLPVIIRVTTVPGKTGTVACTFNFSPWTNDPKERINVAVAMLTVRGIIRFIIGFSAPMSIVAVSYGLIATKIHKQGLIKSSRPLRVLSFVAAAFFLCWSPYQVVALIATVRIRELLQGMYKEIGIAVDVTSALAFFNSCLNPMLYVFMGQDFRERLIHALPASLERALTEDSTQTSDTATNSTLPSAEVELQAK
Chain of Disintegrin and metalloproteinase domain-containing protein 17 (P78536 whole entry, the tested form may be a part): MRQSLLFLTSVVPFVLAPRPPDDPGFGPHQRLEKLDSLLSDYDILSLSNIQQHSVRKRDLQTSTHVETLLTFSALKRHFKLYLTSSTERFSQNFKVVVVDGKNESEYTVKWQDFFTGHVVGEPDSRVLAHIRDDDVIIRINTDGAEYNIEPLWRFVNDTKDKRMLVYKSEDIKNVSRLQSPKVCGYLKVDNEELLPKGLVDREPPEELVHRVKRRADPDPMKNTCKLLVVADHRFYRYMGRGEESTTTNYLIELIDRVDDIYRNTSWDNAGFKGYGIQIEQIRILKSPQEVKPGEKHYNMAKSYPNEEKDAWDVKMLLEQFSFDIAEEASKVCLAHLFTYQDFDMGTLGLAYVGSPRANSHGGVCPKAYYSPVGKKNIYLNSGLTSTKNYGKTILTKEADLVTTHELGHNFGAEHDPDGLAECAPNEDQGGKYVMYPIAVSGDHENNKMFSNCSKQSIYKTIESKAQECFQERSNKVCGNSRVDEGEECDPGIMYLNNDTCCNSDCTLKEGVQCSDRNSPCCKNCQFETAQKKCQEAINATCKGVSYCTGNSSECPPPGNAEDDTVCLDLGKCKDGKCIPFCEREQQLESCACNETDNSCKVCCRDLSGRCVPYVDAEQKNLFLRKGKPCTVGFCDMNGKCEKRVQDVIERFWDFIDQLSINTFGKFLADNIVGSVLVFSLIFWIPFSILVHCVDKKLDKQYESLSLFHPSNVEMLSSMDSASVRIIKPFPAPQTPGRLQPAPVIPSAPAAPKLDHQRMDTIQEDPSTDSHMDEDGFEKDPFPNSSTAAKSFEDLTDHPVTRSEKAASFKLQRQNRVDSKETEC
Chain of Cytochrome P450 3A4 (P08684 whole entry): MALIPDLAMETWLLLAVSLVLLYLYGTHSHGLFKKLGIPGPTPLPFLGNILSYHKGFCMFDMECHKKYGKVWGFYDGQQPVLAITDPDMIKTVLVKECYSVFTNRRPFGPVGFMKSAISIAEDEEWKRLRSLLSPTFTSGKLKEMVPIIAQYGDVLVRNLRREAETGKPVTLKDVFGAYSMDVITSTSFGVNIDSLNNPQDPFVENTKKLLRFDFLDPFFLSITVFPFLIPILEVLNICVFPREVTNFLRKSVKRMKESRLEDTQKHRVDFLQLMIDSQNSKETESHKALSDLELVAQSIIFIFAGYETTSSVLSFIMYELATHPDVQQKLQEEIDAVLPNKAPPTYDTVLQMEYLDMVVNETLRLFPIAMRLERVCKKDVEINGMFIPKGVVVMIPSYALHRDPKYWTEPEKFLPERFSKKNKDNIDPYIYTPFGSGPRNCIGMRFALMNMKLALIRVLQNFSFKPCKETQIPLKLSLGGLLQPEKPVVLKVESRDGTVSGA
Chain of Paired box protein Pax-8 (Q06710 whole entry): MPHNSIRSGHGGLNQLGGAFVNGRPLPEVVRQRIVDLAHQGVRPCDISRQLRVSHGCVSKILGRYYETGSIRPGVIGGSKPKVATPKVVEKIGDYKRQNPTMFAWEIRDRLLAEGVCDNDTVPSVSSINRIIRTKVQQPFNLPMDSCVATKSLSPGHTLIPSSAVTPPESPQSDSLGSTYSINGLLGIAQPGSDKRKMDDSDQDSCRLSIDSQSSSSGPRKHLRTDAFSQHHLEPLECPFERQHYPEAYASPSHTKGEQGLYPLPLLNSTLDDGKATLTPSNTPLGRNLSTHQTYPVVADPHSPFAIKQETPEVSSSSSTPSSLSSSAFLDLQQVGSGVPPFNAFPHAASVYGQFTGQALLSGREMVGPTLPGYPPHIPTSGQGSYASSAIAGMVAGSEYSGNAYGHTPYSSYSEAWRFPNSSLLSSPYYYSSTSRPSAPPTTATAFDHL
Chain of Cytochrome P450 2C9 (P11712 whole entry): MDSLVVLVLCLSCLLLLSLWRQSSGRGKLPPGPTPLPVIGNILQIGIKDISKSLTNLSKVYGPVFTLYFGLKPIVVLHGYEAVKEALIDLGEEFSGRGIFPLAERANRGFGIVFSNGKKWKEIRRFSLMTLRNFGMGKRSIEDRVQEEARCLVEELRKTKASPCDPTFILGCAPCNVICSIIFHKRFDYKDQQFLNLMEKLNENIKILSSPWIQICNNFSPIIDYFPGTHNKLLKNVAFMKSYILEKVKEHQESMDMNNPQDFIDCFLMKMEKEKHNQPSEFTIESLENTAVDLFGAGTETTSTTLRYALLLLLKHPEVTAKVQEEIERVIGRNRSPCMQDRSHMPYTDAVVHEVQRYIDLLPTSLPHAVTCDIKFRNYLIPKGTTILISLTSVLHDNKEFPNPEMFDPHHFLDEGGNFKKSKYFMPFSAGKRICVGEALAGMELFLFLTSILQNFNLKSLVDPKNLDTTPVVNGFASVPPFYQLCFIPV

In the case of Cc1ccc2[nH]c(-c3ccc(SCC(=O)Nc4ccc5c(c4)OCCO5)nc3)nc2c1, the EC50 [1] is reported as 1.99 µM (active), the EC50 [2] is reported as 1.13 µM (active) and the IC50 [3] is reported as 83.3 µM (inactive). For the same compound, the EC50 (H4) was 11.3 µM (active).
With C[C@@H]1CCCCO[C@@H](CN(C)Cc2ccc(C(F)(F)F)cc2)[C@H](C)CN([C@@H](C)CO)C(=O)c2cc(NS(=O)(=O)c3ccc(F)cc3)ccc2O1 the AC50 [4] was 55.8 µM (active), the AC50 (Paired box protein Pax-8) was 5.83 µM (active) and the AC50 [5] was > 70 µM (inactive).
In the case of Cc1ccc2nc(-c3ccc(SCC(=O)Nc4ccc5c(c4)OCCO5)nc3)[nH]c2c1, the IC50 [6] is reported as 21.5 µM (inactive).
In the case of CCOc1cccc(C(=O)C2=C(O)C(=O)N(Cc3ccco3)C2c2ccncc2)c1 (centres undefined), the AC50 (Cytochrome P450 2C9) is reported as 14.1 µM (inconclusive), the AC50 (Cytochrome P450 3A4) is reported as 22.4 µM (inconclusive) and the Ki (fMet-Leu-Phe receptor) is reported as > 66.7 µM (inactive).
With COc1ccc(NC(=O)Cn2nnc(-c3ccccc3)c2COc2ccc3ccccc3c2)cn1 the IC50 [7] was > 69.5 µM (inactive) and the IC50 [8] was > 7.72 µM (active).
For O=C(C1CCC(Cn2c(=S)[nH]c3ccccc3c2=O)CC1)N1CCN(c2ccccc2)CC1 (centres undefined), the IC50 [7] was > 69.5 µM (inactive) and the IC50 [8] was > 69.5 µM (inactive).
In the case of CCOc1ccc(C2C(C(=O)c3ccco3)=C(O)C(=O)N2CCCn2ccnc2)cc1 (centres undefined), the Ki (fMet-Leu-Phe receptor) is reported as 9.9 µM (active).
With O=C1C2C3C=CC(C3)C2C(=O)N1c1cccc(N2C(=O)C3C4C=CC(C4)C3C2=O)n1 (centres undefined) the EC50 [9] was > 53 µM (inactive), the AC50 [10] was > 70 µM (inactive) and the AC50 [11] was 45.2 µM (active).
